In article PMC10222209 (Pharmaceuticals, 2023):
Where two headings read alike, the source gives them in different places.

Tests used:
22RV1 cells = experiment: Antiproliferative assay (resazurin, 72 h) in 22RV1 cells; assay type: cell-based; conditions: for inhibition at 1 µM / IC50: Homo sapiens; for antiproliferative activity, in words: enzalutamide-resistant cell lines LNCaP95 and 22RV1, SAR statements
Experimental: (§1) 22Rv1 cells were obtained from ATCC. LNCaP95 cells were provided by Dr. Yan Dong’s laboratory (Tulane University School of Medicine). LNCaP95 cells were maintained in an RPMI1640 medium with charcoal-stripped serum (CSS). 22Rv1 cells were maintained in an RPMI1640 medium with 10% FBS. Cells were seeded in 96-well plates (5 × 10^3 cells/well) containing a 50 μL growth medium for 24 h. After medium removal, a 100 μL fresh medium containing individual compounds at different concentrations was added to each well and incubated at 37 °C for 72 h. Then, 20 μL of resazurin was added for 2 h before recording fluorescence at 560 nm (excitation) and 590 nm (emission) using a Victor microtiter plate fluorometer (Perkin-Elmer, Waltham, MA, USA).

LNCaP95 cells = experiment: Antiproliferative assay (resazurin, 72 h) in LNCaP95 cells; assay type: cell-based
Experimental: as §1

AR-full length (AR-FL) = target: T1, AR-full length (AR-FL) (Homo sapiens, UniProt P10275, T878A); experiment: AR downregulation in LNCaP95 cells (automated Western, Wes); conditions: for downregulating the AR-FL, in words: LNCaP95; for DC50: read-out: AR Downregulation IC50, LNCaP95, 24 h treatment
T1 sequence (P10275 1-920 T878A): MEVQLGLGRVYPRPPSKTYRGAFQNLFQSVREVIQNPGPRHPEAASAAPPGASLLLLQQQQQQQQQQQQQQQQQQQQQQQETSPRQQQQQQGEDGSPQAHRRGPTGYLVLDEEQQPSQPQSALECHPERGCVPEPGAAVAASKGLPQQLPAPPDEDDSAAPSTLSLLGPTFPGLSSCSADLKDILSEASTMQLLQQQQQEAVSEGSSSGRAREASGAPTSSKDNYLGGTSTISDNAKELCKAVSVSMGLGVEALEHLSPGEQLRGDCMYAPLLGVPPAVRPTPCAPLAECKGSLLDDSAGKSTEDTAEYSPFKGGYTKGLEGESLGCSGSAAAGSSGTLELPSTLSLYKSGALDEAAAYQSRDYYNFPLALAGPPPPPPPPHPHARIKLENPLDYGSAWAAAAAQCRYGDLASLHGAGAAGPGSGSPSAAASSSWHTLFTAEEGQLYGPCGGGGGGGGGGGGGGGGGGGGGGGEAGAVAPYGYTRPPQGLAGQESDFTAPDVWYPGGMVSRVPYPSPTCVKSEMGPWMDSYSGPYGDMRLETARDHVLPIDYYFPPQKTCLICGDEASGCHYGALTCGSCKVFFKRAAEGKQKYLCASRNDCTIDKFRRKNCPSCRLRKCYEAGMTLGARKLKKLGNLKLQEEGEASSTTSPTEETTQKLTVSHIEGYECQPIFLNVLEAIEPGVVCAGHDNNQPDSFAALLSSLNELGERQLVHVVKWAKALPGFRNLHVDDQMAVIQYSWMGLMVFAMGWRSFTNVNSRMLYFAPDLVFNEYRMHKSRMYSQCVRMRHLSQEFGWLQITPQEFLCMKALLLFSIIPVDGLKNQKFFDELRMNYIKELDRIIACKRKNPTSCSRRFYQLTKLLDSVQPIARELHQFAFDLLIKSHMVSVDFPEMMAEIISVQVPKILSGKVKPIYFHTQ
Experimental: (§2) Total AR and AR-V7 protein levels were determined using automated Western blotting (Wes Simple Western Analysis, ProteinSimple, San Jose, CA, USA). WES analyses were performed following the WES user manual. Briefly, LNCaP95 and 22RV1 cells were plated in a 12-well plate at a density of 2.5 × 10^5 cells per well. […] Samples were mixed with a master mix (ProteinSimple, San Jose, CA, USA) to give a final concentration of 0.2 mg/mL total protein, 1 × sample buffer, 1 × fluorescent molecular weight markers, and 40 mM DTT. Samples were heated at 95 °C for 5 min followed by centrifugation. Samples, blocking solution, primary antibodies, horseradish peroxidase-conjugated secondary antibodies, chemiluminescent substrate, and separation and stacking matrices were loaded into designated wells in a 384 well plate. After plate loading, fully automated electrophoresis and immunodetection took place in the capillary system. Proteins were separated by molecular weight at 375 V for 25 min, and primary and secondary antibodies were incubated for 30 min. The AR (Santa Cruz, Santa Cruz, CA, USA), AR-V7 (Santa Cruz, Santa Cruz, CA, USA), and actin (Novus, cat #NB600-503) antibodies were diluted in a proprietary antibody diluent at a 1:50 dilution ratio. Chemiluminescence was captured by a charge-coupled device camera, and the digital image was analyzed using Compass software 6.2.0 (ProteinSimple). The amount of each protein, relative to total protein content, was calculated based on peak areas. Total AR and AR-V7 levels were normalized to actin.

AR-V7 [1] = target: T2, AR-V7 (Homo sapiens, UniProt P10275); experiment: AR-V7 downregulation in 22RV1 cells (automated Western, Wes); conditions: read-out: AR-V7 Downregulation IC50; 22RV1, 24 h treatment
T2 sequence (P10275 1-644 isoform P10275-3): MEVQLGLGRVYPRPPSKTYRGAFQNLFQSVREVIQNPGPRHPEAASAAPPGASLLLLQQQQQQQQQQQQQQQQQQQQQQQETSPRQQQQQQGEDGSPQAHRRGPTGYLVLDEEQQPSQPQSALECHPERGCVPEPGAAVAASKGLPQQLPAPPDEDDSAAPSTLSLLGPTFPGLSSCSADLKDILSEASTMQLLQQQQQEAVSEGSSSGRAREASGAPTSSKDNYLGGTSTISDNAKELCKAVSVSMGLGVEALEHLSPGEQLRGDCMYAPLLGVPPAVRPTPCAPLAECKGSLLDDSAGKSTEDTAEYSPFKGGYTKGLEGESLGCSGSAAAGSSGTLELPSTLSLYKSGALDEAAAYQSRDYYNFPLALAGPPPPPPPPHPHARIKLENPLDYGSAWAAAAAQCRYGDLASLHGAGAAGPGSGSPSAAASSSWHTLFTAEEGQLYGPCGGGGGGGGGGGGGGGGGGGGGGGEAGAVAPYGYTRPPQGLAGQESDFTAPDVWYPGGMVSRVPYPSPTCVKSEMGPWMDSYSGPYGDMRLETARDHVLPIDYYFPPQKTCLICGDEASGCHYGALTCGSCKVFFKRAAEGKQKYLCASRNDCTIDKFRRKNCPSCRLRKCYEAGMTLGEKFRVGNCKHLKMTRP
Experimental: as §2

AR-V7 [2] = target: T2, AR-V7; experiment: AR-V7 downregulation in LNCaP95 cells (automated Western, Wes); conditions: for downregulating the AR-V7, in words: LNCaP95; for DC50: read-out: AR-V7 Downregulation IC50, LNCaP95, 24 h treatment
Experimental: as §2

[3] = 22RV1, 1.0 μM, read-out: Inhibitory Rate 22RV1 @1.0 μM
[4] = antiproliferation, 22RV1, 72 h, mean of three independent experiments, read-out: IC50 (μM) 22RV1
[5] = observed, −log IC50, 22RV1 antiproliferation, read-out: Obs pIC50 (converted)
[6] = LNCaP-95, antiproliferation, LNCaP95, 72 h, mean of three independent experiments, read-out: IC50 (μM) LNCaP95

Row | SMILES | inhibition at 1 µM (22RV1 cells; [3]) | IC50 (22RV1 cells; [4]) | IC50 (22RV1 cells; [5]) | antiproliferative activity, in words (22RV1 cells) | IC50 (LNCaP95 cells; [6]) | downregulating the AR-FL, in words (AR-full length (AR-FL)) | DC50 (AR-full length (AR-FL)) | DC50 (AR-V7 [1]) | downregulating the AR-V7, in words (AR-V7 [2]) | DC50 (AR-V7 [2]) | IC50 (22RV1 cells; 22Rv1, 72 h, read-out: IC50 (μM) 22RV1) | inhibition at 1 µM (22RV1 cells; 22Rv1, read-out: Inhibitory Rate 22RV1 @1.0 μM) | IC50 (22RV1 cells; 22Rv1, read-out: Obs pIC50 (converted)) | IC50 (LNCaP95 cells; LNCaP-95, 72 h, read-out: IC50 (μM) LNCaP95) | IC50 (22RV1 cells; 22Rv1, antiproliferation, approximate value, read-out: IC50 in 22RV1 (text)) | IC50 (LNCaP95 cells; LNCaP-95, antiproliferation, approximate value, read-out: IC50 in LNCaP95 (text))
1 | O=C(Nc1ccc(C(F)(F)F)c(C(F)(F)F)c1)c1cc(Cl)ccc1O [B1] | 59.2% | 0.258 ± 0.097 µM | 0.258 µM | equivalent or improved anti-proliferation potency | 0.239 ± 0.072 µM | strong activity | 463 ± 224 nM | 4280 ± 1360 nM | strong activity | 280 ± 117 nM |  |  |  |  |  | 
2 | N#Cc1ccc(NC(=O)c2cc(Cl)ccc2O)cc1C(F)(F)F [B3] |  |  |  |  |  | strong activity | 781 ± 512 nM | 354 ± 134 nM | strong activity | 850 ± 246 nM | 0.695 ± 0.246 µM | 34.9% | 0.695 µM | 0.354 ± 0.066 µM |  | 
3 | O=C(Nc1ccc(C(F)(F)F)c(C(F)(F)F)c1)c1cc(F)c(F)cc1O [B14] | 47.3% | 0.382 ± 0.078 µM | 0.382 µM |  | 0.199 ± 0.055 µM | strong activity | 498 ± 185 nM | > 10000 nM | strong activity | 491 ± 156 nM |  |  |  |  |  | 
4 | O=C(Nc1ccc(C(F)(F)F)c(C(F)(F)F)c1)c1cc(F)ccc1O [B9] | 84.3% | 0.0997 ± 0.0221 µM | 0.0991 µM | equivalent or improved anti-proliferation potency | 0.13 ± 0.033 µM | strong activity | 551 ± 173 nM | 2860 ± 950 nM | strong activity | 467 ± 204 nM |  |  |  |  | ~0.1 µM | ~0.1 µM
